We go through 30 compounds from Sander's compilation of Henry's law constants.

A short description of series [1]: Henry solubility constant Hcp at 298.15 K (mol/(m3 Pa)).
Series [2] can be described thus: Henry solubility constant Hcp at 310 K (mol/(m3 Pa)).
The nature of series [3]: Henry solubility constant Hcp at 293 K (mol/(m3 Pa)).
The mark [4] stands for this setting: reference: Power and Stegall (1970).
Where [5] appears, read: reference: Järnberg and Johanson (1995).
Setting [6] is: reference: Bissonette et al. (1990).
The mark [7] stands for this setting: reference: Bobadilla et al. (2003).
Where [8] appears, read: reference: Nicholson et al. (1984).
Where [9] appears, read: reference: Ruiz-Bevia and Fernandez-Torres (2010).
Where [10] appears, read: reference: Warner et al. (1980).
[11] abbreviates: reference: Johanson and Dynésius (1988).
The mark [12] stands for this setting: reference: Sheikheldin et al. (2001).
Where [13] appears, read: reference: Lerman et al. (1983).
Where [14] appears, read: reference: Schuhfried et al. (2011).
Where [15] appears, read: reference: Vitenberg et al. (1975).
Where [16] appears, read: reference: Mackay et al. (1979).
The mark [17] stands for this setting: reference: De Maagd et al. (1998).
Setting [18] is: reference: Yurteri et al. (1987).
The mark [19] stands for this setting: reference: Chiang et al. (1998).

`FS(F)(F)(F)(F)F` [sulfur hexafluoride]: the “Henry solubility constant Hcp” value in series [1] (reference: Ashton et al. (1968)) stood at 2.4e-06; in series [1] (reference: Bullister et al. (2002)) it was 2.3e-06; in series [1] (reference: Cosgrove and Walkley (1981)), 2.5e-06; in series [1] (reference: Friedman (1954)), 2.2e-06; in series [1] (reference: Park et al. (1982)), 2.4e-06. The “Henry solubility constant Hcp at 310 K” value in series [2] (reference: Longo et al. (1970)) and in series [2] (setting [4]) was 1.7e-06 throughout.
With `Cc1cc(C)cc(C)c1` [1,3,5-trimethylbenzene], the “Henry solubility constant Hcp” value in series [1] (reference: Sanemasa et al. (1981)) was found to be 0.0011. Also, in series [2] (setting [5]), the “Henry solubility constant Hcp at 310 K” value was found to be 0.00048.
With `Cc1ccc(C)cc1` [1,4-dimethylbenzene], the “Henry solubility constant Hcp” value came to 0.0012 in series [1] (setting [6]); 0.002 in series [1] (setting [7]); 0.0014 in series [1] (reference: Li et al. (2008)); 0.0016 in series [1] (reference: Lin and Chou (2006)); 0.00098 in series [1] (reference: Park et al. (1997)); 0.0023 in series [1] (reference: Wasik and Tsang (1970)). In addition, in series [2] (reference: McIntosh and Heffron (2000)), the “Henry solubility constant Hcp at 310 K” value came to 0.00067.
Turning to `ClC(Br)Br` [dibromochloromethane], the “Henry solubility constant Hcp” value in series [1] (reference: Ervin et al. (1980)) is 0.0085; in series [1] (setting [8]), 0.0086; in series [1] (setting [9]) it was 0.011; in series [1] (setting [10]) it was 0.013. Also, in series [2] (reference: Zhang et al. (2002)), the “Henry solubility constant Hcp at 310 K” value was 0.0046.
For the compound `COCC(C)O` (stereo not given) [1-methoxy-2-propanol], the “Henry solubility constant Hcp at 310 K” value in series [2] (setting [11]) came out at 4.8.
Turning to `ClC(Cl)Br` [bromodichloromethane], the “Henry solubility constant Hcp” value in series [1] (reference: Ervin et al. (1980)) worked out at 0.0035; in series [1] (setting [8]), 0.0047; in series [1] (setting [9]), 0.0058; in series [1] (setting [10]) it was 0.0047. Further, the “Henry solubility constant Hcp at 310 K” value in series [2] (reference: Zhang et al. (2002)) came to 0.0029.
Regarding `[Ne]` [neon], the “Henry solubility constant Hcp” value turned out to be 4.4e-06 in series [1] (reference: Crovetto et al. (1982)); 4.5e-06 in series [1] (reference: Krause and Benson (1989)); 4.6e-06 in series [1] (reference: Lannung (1930)); 4.5e-06 in series [1] (reference: Morrison and Johnstone (1954)); 6.6e-06 in series [1] (reference: von Antropoff (1910)). For the same compound, the “Henry solubility constant Hcp at 310 K” value in series [2] (setting [4]) turned out to be 4.3e-06.
In the case of `Cc1ccc(O)c(C)c1` [1-hydroxy-2,4-dimethylbenzene], the “Henry solubility constant Hcp” value in series [1] (reference: Dohnal and Fenclová (1995)) stood at 4.9. For the same compound, the “Henry solubility constant Hcp at 293 K” value in series [3] (setting [12]) came to 6.6.
For `CCc1cccc(C)c1N(C(=O)CCl)C(C)COC` (stereo not given) [metolachlor], the “Henry solubility constant Hcp” value in series [1] (reference: Feigenbrugel et al. (2004a)) is 210; in series [1] (reference: Lau et al. (1995)), 570. In addition, the “Henry solubility constant Hcp at 293 K” value in series [3] (reference: Rice et al. (1997b)) is 130.
As for `FC(F)OC(F)(F)C(F)Cl` (stereo not given) [2-chloro-1,1,2-trifluoroethyl difluoromethyl ether], in series [2] (setting [13]), the “Henry solubility constant Hcp at 310 K” value came out at 0.00029.
Regarding `CSC` [dimethyl sulfide], the “Henry solubility constant Hcp” value in series [1] (reference: Barcellos da Rosa et al. (2003)) was found to be 0.0064; in series [1] (reference: Bruneel et al. (2016)), 0.0047; in series [1] (reference: Coquelet and Richon (2005)), 0.0052; in series [1] (reference: Dacey et al. (1984)), 0.0055; in series [1] (reference: De Bruyn et al. (1995b)), 0.0047; in series [1] (reference: Gershenzon et al. (2001)), 0.0047. For the same compound, the “Henry solubility constant Hcp” value came to 0.0055 in series [1] (reference: Iliuta and Larachi (2005a)); 0.0016 in series [1] (reference: Lovelock et al. (1972)); 0.016 in series [1] (reference: Marin et al. (1999)); 0.0049 in series [1] (reference: Pollien et al. (2003)); 0.0046 in series [1] (setting [14]); 0.0049 in series [1] (reference: Straver and de Loos (2005)). In series [1] (reference: Wong and Wang (1997)), the “Henry solubility constant Hcp” value was 0.0042. Further, the “Henry solubility constant Hcp at 293 K” value in series [3] (setting [15]) is 0.0061.
As for `c1ccc2ccccc2c1` [naphthalene], the “Henry solubility constant Hcp” value in series [1] (reference: Alaee et al. (1996)) was 0.023; in series [1] (setting [7]), 0.04; in series [1] (setting [16]), 0.02; in series [1] (reference: Schwarz and Wasik (1977)) it was 0.022; in series [1] (reference: Southworth (1979)), 0.018; in series [1] (reference: Webster et al. (1985)), 0.026. For the same compound, the “Henry solubility constant Hcp at 293 K” value in series [3] (setting [17]) was found to be 0.022; in series [3] (setting [18]), 0.027.
As to `Oc1ccccc1Cl` [2-hydroxychlorobenzene], the “Henry solubility constant Hcp” value in series [1] (reference: Tabai et al. (1997)) was 3.6. Further, the “Henry solubility constant Hcp at 293 K” value in series [3] (setting [12]) amounted to 1.5.
Regarding `COC(F)(F)C(Cl)Cl` [2,2-dichloro-1,1-difluoro-1-methoxyethane], the “Henry solubility constant Hcp” value in series [1] (reference: Smith et al. (1981b)) is 0.0029. The “Henry solubility constant Hcp at 310 K” value in series [2] (setting [13]) came to 0.0017; in series [2] (reference: Stoelting and Longshore (1972)) it was 0.0018.
For `Clc1ccc(Cl)cc1` [1,4-dichlorobenzene], the “Henry solubility constant Hcp” value was determined as 0.0033 in series [1] (reference: Li et al. (2008)) and 0.0036 in series [1] (setting [10]). The “Henry solubility constant Hcp at 293 K” value in series [3] (setting [19]) was found to be 0.0025; in series [3] (setting [18]) it was 0.0052.
Regarding `FC(Br)C(F)(F)F` (stereo not given) [1-bromo-1,2,2,2-tetrafluoroethane], in series [2] (reference: Edelist et al. (1964)), the “Henry solubility constant Hcp at 310 K” value amounted to 0.00012.
In the case of `COCCO` [2-methoxyethanol], the “Henry solubility constant Hcp at 310 K” value in series [2] (setting [11]) is 14.
Regarding `[134Xe]` [xenon-133], the “Henry solubility constant Hcp at 310 K” value in series [2] (reference: Ercan (1979)) is 3.2e-05.
Consider `ClC1=C(Cl)[C@]2(Cl)[C@@H]3[C@@H]4C[C@@H]([C@H]5O[C@@H]45)[C@@H]3[C@@]1(Cl)C2(Cl)Cl` [dieldrin], for which the “Henry solubility constant Hcp” value in series [1] (setting [10]) is 0.17. For the same compound, the “Henry solubility constant Hcp at 293 K” value in series [3] (reference: Slater and Spedding (1981)) came to 0.34.
For `CC1=CCC2C(C1)C2(C)C` (stereo not given) [3,7,7-trimethyl-bicyclo[4.1.0]hept-3-ene], the “Henry solubility constant Hcp at 310 K” value in series [2] (reference: Falk et al. (1990)) came out at 0.00016.
`NCCO` [ethanolamine]: the “Henry solubility constant Hcp” value in series [1] (reference: Kim et al. (2008)) turned out to be 4200. Besides, the “Henry solubility constant Hcp at 293 K” value in series [3] (reference: Bone et al. (1983)) was 60000.
Consider `CCOCCOC(C)=O` [2-ethoxyethyl ethanoate], for which, in series [2] (setting [11]), the “Henry solubility constant Hcp at 310 K” value is 1.5.
For the compound `CCC(=O)OO[N+](=O)[O-]` [peroxypropionyl nitrate], the “Henry solubility constant Hcp” value in series [1] (reference: Easterbrook et al. (2023)) is 0.016. In addition, the “Henry solubility constant Hcp at 293 K” value in series [3] (reference: Kames and Schurath (1995)) was found to be 0.029.
`ClC(Cl)=C(Cl)Cl` [tetrachloroethene]: the “Henry solubility constant Hcp” value in series [1] (setting [6]) is 0.00062; in series [1] (reference: Chen et al. (2012)), 0.00062; in series [1] (reference: Ervin et al. (1980)), 0.00057; in series [1] (reference: Gossett (1980)), 0.0011; in series [1] (reference: Gossett (1987)), 0.00056; in series [1] (reference: Gossett et al. (1985)), 0.00065. In addition, the “Henry solubility constant Hcp” value in series [1] (reference: Knauss et al. (2000)) came to 0.00048; in series [1] (reference: Lincoff and Gossett (1984)), 0.00057; in series [1] (reference: Munz and Roberts (1987)), 0.00054; in series [1] (reference: Park et al. (1997)) it was 0.00055; in series [1] (reference: Peng and Wan (1997)), 0.00061; in series [1] (reference: Peng and Wan (1998)), 0.00078. The “Henry solubility constant Hcp” value came to 0.00058 in series [1] (reference: Robbins et al. (1993)); 0.00058 in series [1] (reference: Shimotori and Arnold (2003)); 0.00059 in series [1] (reference: Tancrède and Yanagisawa (1990)); 0.0006 in series [1] (reference: Vane and Giroux (2000)); 0.00034 in series [1] (setting [10]). For the same compound, the “Henry solubility constant Hcp at 293 K” value in series [3] (setting [19]) is 0.00062; in series [3] (reference: Pearson and McConnell (1975)) it was 0.0005; in series [3] (setting [18]) it was 0.00075.
With `CCSSCC` [diethyl disulfide], in series [1] (setting [14]), the “Henry solubility constant Hcp” value turned out to be 0.0037. For the same compound, the “Henry solubility constant Hcp at 293 K” value in series [3] (setting [15]) was found to be 0.0047.
On to `c1ccc2c(c1)ccc1ccccc12` [phenanthrene], for which the “Henry solubility constant Hcp” value in series [1] (reference: Alaee et al. (1996)) was 0.21; in series [1] (reference: Bamford et al. (1999b)) it was 0.16; in series [1] (setting [16]), 0.25; in series [1] (reference: Odabasi et al. (2006)), 0.27; in series [1] (reference: Southworth (1979)), 0.18. The “Henry solubility constant Hcp at 293 K” value in series [3] (setting [17]) was 0.34.
Take `CCOCCO` [2-ethoxyethanol]: the “Henry solubility constant Hcp at 310 K” value in series [2] (setting [11]) was determined as 8.9.
Turning to `OCCO` [1,2-ethanediol], the “Henry solubility constant Hcp” value in series [1] (reference: Butler and Ramchandani (1935)) came out at 160. Also, in series [3] (reference: Bone et al. (1983)), the “Henry solubility constant Hcp at 293 K” value was found to be 4000.
For `COP(=S)(OC)Oc1ccc([N+](=O)[O-])cc1` [methylparathion], the “Henry solubility constant Hcp” value in series [1] (reference: Metcalfe et al. (1980)) stood at 99. Moreover, the “Henry solubility constant Hcp at 293 K” value in series [3] (reference: Rice et al. (1997b)) was found to be 260.
On to `Cc1cccc(C)c1C` [1,2,3-trimethylbenzene], for which, in series [2] (setting [5]), the “Henry solubility constant Hcp at 310 K” value is 0.0011.
